# Assay results published in publication PMC3189207, “DomPep—A General Method for Predicting Modular Domain-Mediated Protein-Protein Interactions” (PLoS ONE, 2011).
# Read-outs that look alike come from different tables or passages of the source. Residues, ends and D or L forms follow the SMILES beside them.
# Key:
# Scrib PDZ-1 domain = molecular target: T1, Scrib PDZ-1 domain (Homo sapiens, UniProt Q14160); test: In-solution fluorescence polarization binding of peptides to Scrib PDZ1
# T1 construct: ROC curves of DomPep prediction for the three Scrib PDZ-1/2/3 domains
# T1 sequence (Q14160 728-815 limits assumed): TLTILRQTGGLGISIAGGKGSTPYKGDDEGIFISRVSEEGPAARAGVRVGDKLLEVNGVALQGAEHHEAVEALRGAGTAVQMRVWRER
# Scrib PDZ-2 domain = molecular target: T2, Scrib PDZ-2 domain (Homo sapiens, UniProt Q14160); test: In-solution fluorescence polarization binding of peptides to Scrib PDZ2
# T2 construct: ROC curves of DomPep prediction for the three Scrib PDZ-1/2/3 domains
# T2 sequence (Q14160 862-950 limits assumed): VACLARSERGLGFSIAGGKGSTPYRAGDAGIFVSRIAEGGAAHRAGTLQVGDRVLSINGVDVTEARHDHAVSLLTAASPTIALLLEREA
# [1] = Kd value of 100 µM applied as binding cutoff, NB without definition, read-out: Kd (µM) PDZ1
# [2] = Kd value of 100 µM applied as binding cutoff, NB without definition, read-out: Kd (µM) PDZ2
Kd (Scrib PDZ-1 domain; [1]) [µM],Kd (Scrib PDZ-2 domain; [2]) [µM],Structure (SMILES),"Kd (Scrib PDZ-1 domain; read-out: Kd (µM) PDZ1, Kd value of 100 µM applied as binding cutoff, NB without definition) [µM]","Kd (Scrib PDZ-2 domain; read-out: Kd (µM) PDZ2, Kd value of 100 µM applied as binding cutoff, NB without definition) [µM]"
19.2,> 100,CC(C)C[C@H](NC(=O)[C@H](CO)NC(=O)[C@@H](NC(=O)[C@@H](NC(=O)[C@@H](NC(=O)[C@H](Cc1ccccc1)NC(=O)[C@@H](NC(=O)[C@H](CC(=O)O)NC(=O)[C@H](CCC(=O)O)NC(=O)[C@@H]1CCCN1)[C@@H](C)O)[C@@H](C)O)C(C)C)[C@@H](C)O)C(=O)O [AHDC1] (H-PEDTFTVTSL-OH),–,–
23.6,34.3,CC(C)C[C@H](NC(=O)[C@@H]1CCCN1C(=O)[C@@H](NC(=O)[C@H](CCC(=O)O)NC(=O)[C@H](CCCCN)NC(=O)[C@H](CCCCN)NC(=O)[C@H](Cc1ccc(O)cc1)NC(=O)[C@H](CC(N)=O)NC(=O)[C@H](Cc1ccccc1)NC(=O)[C@@H](N)CO)[C@@H](C)O)C(=O)O [ARD50] (H-SFNYKKETPL-OH),–,–
> 100,> 100,CC[C@H](C)[C@H](N)C(=O)N[C@@H](CC(C)C)C(=O)N[C@@H](CCCNC(=N)N)C(=O)N[C@@H](CCCCN)C(=O)N[C@@H](CO)C(=O)N[C@H](C(=O)N[C@H](C(=O)N[C@H](C(=O)N[C@H](C(=O)N[C@H](C(=O)O)C(C)C)[C@@H](C)O)[C@@H](C)O)[C@@H](C)O)[C@@H](C)O [DSC54] (H-ILRKSTTTTV-OH),–,–
> 100,75.7,CSCC[C@H](NC(=O)CNC(=O)[C@H](CC(N)=O)NC(=O)[C@@H](NC(=O)[C@H](CC(C)C)NC(=O)[C@H](CCC(N)=O)NC(=O)[C@@H](N)C(C)C)C(C)C)C(=O)N[C@H](C(=O)N1CCC[C@H]1C(=O)N[C@@H](CC(C)C)C(=O)O)C(C)C [EPHA5] (H-VQLVNGMVPL-OH),–,–
> 100,24.9,CC(C)C[C@H](NC(=O)[C@H](CS)NC(=O)[C@H](Cc1c[nH]cn1)NC(=O)[C@H](CC(C)C)NC(=O)[C@H](C)NC(=O)[C@H](CCC(=O)O)NC(=O)[C@H](CC(C)C)NC(=O)[C@H](CCC(=O)O)NC(=O)[C@@H]1CCCN1C(=O)[C@@H](N)CC(=O)O)C(=O)O [EPHA8] (H-DPELEALHCL-OH),–,–
> 100,> 100,CSCC[C@H](NC(=O)[C@H](CCCNC(=N)N)NC(=O)[C@H](CCCCN)NC(=O)[C@H](CCC(=O)O)NC(=O)[C@H](C)NC(=O)[C@@H](N)Cc1ccc(O)cc1)C(=O)N[C@@H](CC(C)C)C(=O)N[C@H](C(=O)N[C@@H](CCC(=O)O)C(=O)N[C@H](C(=O)O)C(C)C)[C@@H](C)O [KCNA6] (H-YAEKRMLTEV-OH),–,–
> 100,> 100,CC[C@H](C)[C@H](NC(=O)[C@H](CCCNC(=N)N)NC(=O)[C@@H](NC(=O)[C@H](CO)NC(=O)[C@H](CC(C)C)NC(=O)[C@H](C)NC(=O)[C@@H](N)CO)C(C)C)C(=O)N[C@@H](CO)C(=O)N[C@@H](CC(N)=O)C(=O)N[C@H](C(=O)O)C(C)C [KCNJ10] (H-SALSVRISNV-OH),–,–
20.3,56.1,CC(C)C[C@H](NC(=O)[C@@H]1CCCN1C(=O)[C@@H](NC(=O)[C@H](CCC(=O)O)NC(=O)[C@H](CCCCN)NC(=O)[C@H](CO)NC(=O)[C@@H](NC(=O)[C@H](CCCNC(=N)N)NC(=O)[C@H](C)NC(=O)CN)C(C)C)[C@@H](C)O)C(=O)O [MAPK12] (H-GARVSKETPL-OH),–,–
> 100,> 100,CC[C@H](C)[C@H](NC(=O)[C@H](CCCNC(=N)N)NC(=O)[C@@H](NC(=O)[C@H](CCCNC(=N)N)NC(=O)[C@H](CO)NC(=O)[C@H](C)NC(=O)[C@@H](N)CC(N)=O)[C@@H](C)O)C(=O)N[C@H](C(=O)N[C@@H](Cc1ccccc1)C(=O)N[C@H](C(=O)O)C(C)C)[C@@H](C)O [MCM7] (H-NASRTRITFV-OH),–,–

# Second part, the compound before the results:
Structure (SMILES),Kd (Scrib PDZ-1 domain; [1]) [µM],Kd (Scrib PDZ-2 domain; [2]) [µM],"Kd (Scrib PDZ-1 domain; read-out: Kd (µM) PDZ1, Kd value of 100 µM applied as binding cutoff, NB without definition) [µM]","Kd (Scrib PDZ-2 domain; read-out: Kd (µM) PDZ2, Kd value of 100 µM applied as binding cutoff, NB without definition) [µM]"
CC(C)C[C@H](NC(=O)[C@@H](NC(=O)[C@H](CC(N)=O)NC(=O)[C@@H](N)CCCNC(=N)N)[C@@H](C)O)C(=O)N[C@@H](Cc1ccc(O)cc1)C(=O)N[C@@H](Cc1ccccc1)C(=O)N[C@@H](CO)C(=O)N[C@H](C(=O)N[C@@H](CC(=O)O)C(=O)N[C@H](C(=O)O)C(C)C)[C@@H](C)O [ABR] (H-RNTLYFSTDV-OH),12.5,10.4,–,–
CC(C)C[C@H](NC(=O)[C@H](CO)NC(=O)[C@@H](NC(=O)[C@H](CC(=O)O)NC(=O)[C@@H](NC(=O)[C@H](CC(C)C)NC(=O)[C@H](CCC(N)=O)NC(=O)CNC(=O)[C@@H]1CCCN1C(=O)[C@@H](N)CCC(N)=O)C(C)C)[C@@H](C)O)C(=O)O [ANKS4B] (H-QPGQLVDTSL-OH),> 100,> 100,–,–
CC(C)C[C@H](NC(=O)[C@H](Cc1ccc(O)cc1)NC(=O)[C@H](CO)NC(=O)CNC(=O)[C@H](CO)NC(=O)[C@@H](N)Cc1c[nH]cn1)C(=O)N[C@H](C(=O)N[C@H](C(=O)N[C@@H](CO)C(=O)N[C@H](C(=O)O)C(C)C)[C@@H](C)O)C(C)C [APC] (H-HSGSYLVTSV-OH),12.3,9.5,–,–
CSCC[C@H](N)C(=O)N[C@@H](CCC(=O)O)C(=O)N[C@@H](CCCNC(=N)N)C(=O)N[C@@H](CC(C)C)C(=O)N[C@@H](CCCNC(=N)N)C(=O)N[C@H](C(=O)N[C@@H](CCC(=O)O)C(=O)N[C@H](C(=O)N[C@@H](CC(=O)O)C(=O)N[C@H](C(=O)O)C(C)C)[C@@H](C)O)C(C)C [ARHGEF16] (H-MERLRVETDV-OH),27.5,7.7,–,–
CC(C)C[C@H](NC(=O)[C@@H](NC(=O)CNC(=O)[C@H](CC(N)=O)NC(=O)[C@H](CCCCN)NC(=O)[C@H](CO)NC(=O)[C@H](CC(=O)O)NC(=O)[C@H](Cc1ccc(O)cc1)NC(=O)[C@@H](N)CCCNC(=N)N)[C@@H](C)O)C(=O)N[C@H](C(=O)O)C(C)C [C11orf52] (H-RYDSKNGTLV-OH),> 100,> 100,–,–
CC(C)C[C@H](NC(=O)[C@H](CO)NC(=O)[C@@H](NC(=O)[C@H](CCC(=O)O)NC(=O)[C@H](CCC(=O)O)NC(=O)[C@H](CS)NC(=O)[C@@H](NC(=O)[C@H](CCCNC(=N)N)NC(=O)[C@@H](NC(=O)[C@@H]1CCCN1)C(C)C)C(C)C)[C@@H](C)O)C(=O)O [FAM105B] (H-PVRVCEETSL-OH),1.9,17.6,–,–
CC[C@H](C)[C@H](NC(=O)[C@H](CC(C)C)NC(=O)[C@H](CCC(N)=O)NC(=O)[C@H](CCSC)NC(=O)[C@H](CC(N)=O)NC(=O)[C@H](Cc1ccccc1)NC(=O)[C@@H](N)CO)C(=O)N[C@@H](CO)C(=O)N[C@@H](CCC(N)=O)C(=O)N[C@H](C(=O)O)C(C)C [FAM126B] (H-SFNMQLISQV-OH),> 100,> 100,–,–
CC(C)C[C@H](NC(=O)[C@@H](N)C(C)C)C(=O)N[C@@H](Cc1ccc(O)cc1)C(=O)N1CCC[C@H]1C(=O)N[C@@H](CCCNC(=N)N)C(=O)N[C@@H](CCC(=O)O)C(=O)NCC(=O)N[C@H](C(=O)N[C@@H](CCC(=O)O)C(=O)N[C@H](C(=O)O)C(C)C)[C@@H](C)O [FOXl1] (H-VLYPREGTEV-OH),> 100,24.7,–,–
CSCC[C@H](NC(=O)[C@H](CC(C)C)NC(=O)[C@@H](NC(=O)[C@H](C)NC(=O)[C@H](CCSC)NC(=O)[C@H](CCCCN)NC(=O)[C@H](CC(N)=O)NC(=O)[C@@H]1CCCN1C(=O)[C@H](CC(N)=O)NC(=O)[C@@H](N)CC(C)C)[C@@H](C)O)C(=O)O [GLO1] (H-LNPNKMATLM-OH),–,–,> 100,> 100
CC(C)C[C@H](NC(=O)[C@H](CCCNC(=N)N)NC(=O)[C@@H]1CCCN1C(=O)[C@H](Cc1c[nH]cn1)NC(=O)[C@H](CO)NC(=O)[C@@H]1CCCN1)C(=O)N[C@@H](CCC(N)=O)C(=O)N[C@H](C(=O)N[C@@H](Cc1c[nH]cn1)C(=O)N[C@H](C(=O)O)C(C)C)[C@@H](C)O [KIRREL2] (H-PSHPRLQTHV-OH),> 100,> 100,–,–
CC(C)C[C@H](NC(=O)[C@H](CC(=O)O)NC(=O)[C@@H](NC(=O)[C@H](CO)NC(=O)[C@H](C)NC(=O)[C@H](CCCCN)NC(=O)[C@H](C)NC(=O)[C@@H](NC(=O)[C@H](CC(C)C)NC(=O)[C@@H](N)C(C)C)[C@@H](C)O)[C@@H](C)O)C(=O)O [LPP] (H-VLTAKASTDL-OH),24.2,> 100,–,–
CC[C@H](C)[C@H](NC(=O)[C@@H]1CCCN1C(=O)[C@H](Cc1c[nH]cn1)NC(=O)[C@@H](NC(=O)[C@@H](N)Cc1ccccc1)C(C)C)C(=O)N[C@@H](CC(C)C)C(=O)N[C@@H](CCC(N)=O)C(=O)N[C@@H](CO)C(=O)N[C@@H](C)C(=O)N[C@H](C(=O)O)C(C)C [PRKCA] (H-FVHPILQSAV-OH),17.4,46,–,–
CC(C)[C@H](NC(=O)[C@H](CO)NC(=O)[C@@H](NC(=O)[C@@H](NC(=O)[C@@H](NC(=O)[C@H](CCCNC(=N)N)NC(=O)[C@@H](NC(=O)[C@H](CCCCN)NC(=O)[C@H](C)NC(=O)[C@@H](N)CO)C(C)C)[C@@H](C)O)C(C)C)[C@@H](C)O)C(=O)O [RASL11B] (H-SAKVRTVTSV-OH),> 100,> 100,–,–
CC(C)C[C@H](NC(=O)[C@@H](NC(=O)[C@@H](NC(=O)[C@H](CO)NC(=O)[C@@H]1CCCN1C(=O)[C@H](CC(C)C)NC(=O)[C@H](CCCCN)NC(=O)[C@H](CCCNC(=N)N)NC(=O)[C@@H](NC(=O)[C@@H](N)CCCNC(=N)N)C(C)C)[C@@H](C)O)[C@@H](C)O)C(=O)O [RPS6KA1] (H-RVRKLPSTTL-OH),> 100,> 100,–,–
CSCC[C@H](NC(=O)CN)C(=O)N[C@@H](CCCCN)C(=O)N[C@@H](CCCNC(=N)N)C(=O)N[C@@H](CC(C)C)C(=O)N[C@H](C(=O)N[C@@H](CO)C(=O)N[C@H](C(=O)N[C@@H](CCCNC(=N)N)C(=O)N[C@@H](CC(C)C)C(=O)O)[C@@H](C)O)[C@@H](C)O [RPS6KA2] (H-GMKRLTSTRL-OH),> 100,62.7,–,–
CSCC[C@H](NC(=O)[C@@H](N)C(C)C)C(=O)N[C@@H](CCCNC(=N)N)C(=O)N[C@@H](CC(C)C)C(=O)N[C@@H](CCC(N)=O)C(=O)N[C@@H](CO)C(=O)N[C@@H](CCC(=O)O)C(=O)N[C@H](C(=O)N[C@@H](CO)C(=O)N[C@H](C(=O)O)C(C)C)[C@@H](C)O [VANGL2] (H-VMRLQSETSV-OH),21.6,–,–,–
